The term AUC denotes concentration integrated over time. By Cmax is commonly meant the highest concentration seen after dosing.

Series [1] can be described thus: Lipid concentration and pharmacokinetics in the liver of mice after intravenous administration. In kind it is in vivo. The settings on record: mouse, male C57BL mice, lipid dose 0.3 mg/kg. As for the experimental part: (§1) A study was conducted to determine the lipid profile and tissue clearance in mice for cationic lipids according to the present invention.
(§2) Male mice (C57BL, 20-30 g) were separated into four groups and administered (intravenously) either Compound 1, 2 or 3 of the present invention, or a Reference Lipid, as shown below in Table 20.
(§3) The mice were not fasted. Blood, liver and spleen samples were collected (two samples per time point per group) at 0.17, 8, 24, 72, 168, 336 and 672 hours post dose.

The nature of series [2]: Concentration of mono-acid and di-acid metabolites in the liver of mice. In kind it is in vivo, mice (C57BL). Conditions: 0.3 mg/kg intravenous. As for the experimental part: as §2, §3
The concentration of these metabolites was measured in the liver. All measurements after 24 hours (including those taken at 72, 168, 336, and 672 hours post-administration) were below the level of quantification (BLQ).

Series [3] in a line: Lipid concentration and pharmacokinetics in the spleen of mice after intravenous administration. In kind it is in vivo. Conditions: mouse, male C57BL mice, lipid dose 0.3 mg/kg; for MRT last: read-out: MRT0-t (mean residence time). As for the experimental part: as §1, §2, §3
Series [4] can be described thus: Concentration of metabolites of compounds 1-3 in the spleen of mice. In kind it is in vivo, mice (C57BL). As for the experimental part: as §2, §3
A short description of series [5]: Lipid concentration and pharmacokinetics in the plasma of mice after intravenous administration. Conditions: mouse, male C57BL mice, lipid dose 0.3 mg/kg. In kind it is in vivo. The procedure:
as §1, §2, §3

A short description of series [6]: Concentration of metabolites of compounds 1-3 in the plasma of mice. In kind it is in vivo, mice (C57BL). The procedure: as §2, §3
All measurements after 24 hours (including those taken at 72, 168, 336, and 672 hours post-administration) were below the level of quantification (BLQ).

Series [7] in a line: Study to determine lipid profiles and tissue clearance in mice (overall conclusion). The series is classed as in vivo, mice (C57BL). Conditions: liver, spleen and plasma (FIGS. 1, 3, 4; Tables 22, 24, 26). The procedure:
as §1, §2, §3

Setting [8] is: read-out: MRT0-t (mean residence time).

`CCOC(=O)CCCC/C=C\CCCCCCCCC(CCCCCCCC/C=C\CCCCC(=O)OCC)OC(=O)CCCN(C)C` [Compound 2]: the AUC in series [1] was determined as 0.436 µg·h/mL; in series [3], 238 µg·h/mL; in series [5], 116 µg·h/mL. For the same compound, the Cmax came out at 118 ng/mL in series [1], 13600 ng/mL in series [3] and 28800 ng/mL in series [5]. Also, the Di-acid metabolite concentration entry in series [2] (24 hr post dose) is “BLQ”. For the same compound, the Mono-acid metabolite concentration result in series [2] (24 hr post dose) is recorded as “BLQ”. The MRT last in series [3] is 11.1 h. For the same compound, the “Concentration of di-acid metabolite in the spleen” value in series [4] (24 hr post dose), in series [4] (72 hr post dose), in series [4] (168 hr post dose), in series [4] (336 hr post dose) and in series [4] (672 hr post dose) was “BLQ” each time. Further, the “Concentration of mono-acid metabolite in the spleen” value in series [4] (72 hr post dose), in series [4] (168 hr post dose), in series [4] (336 hr post dose) and in series [4] (672 hr post dose) was “BLQ” each time. For the same compound, the “Concentration of di-acid metabolite in the plasma” value in series [6] (24 hr post dose) is “BLQ”. Moreover, the “Concentration of mono-acid metabolite in the plasma” value in series [6] (24 hr post dose) is given as “BLQ”. In addition, the “Tissue clearance and activity compared to the Reference Lipid” value in series [7] is “dramatically improved tissue clearance and activity”.
Consider `COC(=O)CCCCCCC/C=C\CCCCCCCCC(CCCCCCCC/C=C\CCCCCCCC(=O)OC)OC(=O)CCCN(C)C` [Compound 3], for which the Cmax is 208 ng/mL in series [1], 4370 ng/mL in series [3] and 30600 ng/mL in series [5]. Besides, the Di-acid metabolite concentration entry in series [2] (8 hr post dose) and in series [2] (24 hr post dose) was “BLQ” in each case. The Mono-acid metabolite concentration result in series [2] (8 hr post dose) and in series [2] (24 hr post dose) was “BLQ” throughout. Besides, the figures for the AUC in series [3] and in series [5] were 18.7 µg·h/mL and 122 µg·h/mL, respectively. For the same compound, in series [3], the MRT last stood at 0.7 h. For the same compound, the “Concentration of mono-acid metabolite in the spleen” value in series [4] (24 hr post dose), in series [4] (72 hr post dose), in series [4] (168 hr post dose), in series [4] (336 hr post dose) and in series [4] (672 hr post dose) was “BLQ” each time. Besides, in series [4] (672 hr post dose), the “Concentration of di-acid metabolite in the spleen” value is listed as “BLQ”. The “Concentration of mono-acid metabolite in the plasma” value in series [6] (8 hr post dose) and in series [6] (24 hr post dose) was “BLQ” throughout. Further, the “Tissue clearance and activity compared to the Reference Lipid” value in series [7] is “dramatically improved tissue clearance and activity”.
As to `CCCCC/C=C\C/C=C\CCCCCCCCOCC(CN(C)C)OCCCCCCCC/C=C\C/C=C\CCCCC` (centres unmarked) [Reference Lipid, reference compound], the AUC came out at 6950 µg·h/mL in series [1], 3430 µg·h/mL in series [3] and 63.8 µg·h/mL in series [5]. Moreover, the figures for the Cmax in series [1], in series [3] and in series [5] were 22400 ng/mL, 9150 ng/mL and 2110 ng/mL, respectively. Moreover, the values for the MRT last in series [1] (setting [8]), in series [3] and in series [5] (setting [8]) were 221 h, 230 h and 201 h, respectively.
Turning to `CCCCCC/C=C\COC(=O)CCCCCCCC(CCCCCCCC(=O)OC/C=C\CCCCCC)OC(=O)CCCN(C)C` [Compound 1, di((Z)-non-2-en-1-yl) 9-((4-(dimethylamino)butanoyl)oxy)heptadecanedioate], the AUC amounted to 4.59 µg·h/mL in series [1], 42 µg·h/mL in series [3] and 155 µg·h/mL in series [5]. The maximum concentration (Cmax) in series [1] amounted to 1140 ng/mL; in series [3], 7460 ng/mL; in series [5] it was 38800 ng/mL. For the same compound, in series [2] (24 hr post dose), the Di-acid metabolite concentration result is “BLQ”. Further, the Mono-acid metabolite concentration entry in series [2] (24 hr post dose) is on record as “BLQ”. Besides, the MRT last in series [3] was 2.8 h. Also, the “Concentration of di-acid metabolite in the spleen” value in series [4] (8 hr post dose), in series [4] (24 hr post dose), in series [4] (72 hr post dose), in series [4] (168 hr post dose), in series [4] (336 hr post dose) and in series [4] (672 hr post dose) was “BLQ” each time. The “Concentration of mono-acid metabolite in the spleen” value in series [4] (24 hr post dose), in series [4] (72 hr post dose), in series [4] (168 hr post dose), in series [4] (336 hr post dose) and in series [4] (672 hr post dose) was “BLQ” in each case. Also, the “Concentration of di-acid metabolite in the plasma” value in series [6] (8 hr post dose) and in series [6] (24 hr post dose) was “BLQ” throughout. In addition, the “Concentration of mono-acid metabolite in the plasma” value in series [6] (8 hr post dose) and in series [6] (24 hr post dose) was “BLQ” in each case. The “Tissue clearance and activity compared to the Reference Lipid” value in series [7] is “dramatically improved tissue clearance and activity”.
